Experimental findings from patent publication US4001263A, “5-Aryl-1,2,3,4-tetrahydro-γ-carbolines” (Pfizer Inc., priority 1975, dated 1977) are described below.

For this assay, the system named is amphetamine-induced symptoms in rats. Description: antagonism of amphetamine-induced symptoms in rats (block of characteristic amphetamine cage movement behavior). The assay is classed as in vivo. To be noted: Rattus norvegicus, ip. An excerpt:
The tranquilizing agents of the present invention are characterized by relief of such schizophrenic manifestations in humans as hallucinations, hostility, suspiciousness, emotional or social withdrawal, anxiety, agitation and tension. Standard procedures of detecting and comparing tranquilizing activity of compounds in this series and for which there is an excellent correlation with human efficacy is the antagonism of amphetamine-induced symptoms in rats test, as taught by A. Weissman, et al., J. Pharmacol. Exp. Ther., 151, 339 (1966) and by Quinton, et al.,Nature, 200, 178 (1963).
The effects of the compounds of the present invention on prominent amphetamine-induced symptoms were studied in rats by a rating scale modeled after the one reported by Quinton and Halliwell, and Weissman. Groups of five rats were placed in a covered plastic cage measuring approximately 26 cm. × 42 cm. × 16 cm. After a brief period of acclimation in the cage, the rats in each groups were treated intraperitoneally (i.p.) with the test compound. […] On the basis of dose-response data after amphetamine it was possible to determine the effective dose of the compound necessary to antagonize or block the characteristic amphetamine behavior of cage movement for 50 percent of the rats tested (ED50). The time of rating chosen coincides with the peak action of amphetamine which is 60-80 min. after treatment with this agent.
Employing the above-described procedure, the following compounds were tested for their ability to block the behavior effects of amphetamine, the results being reported as the ED50 in mg./kg. at the indicated times: […]

[1] abbreviates: rats, i.p., d-amphetamine sulfate 5 mg./kg. i.p. given 1 hr. after test compound, read-out: ED50 to antagonize or block amphetamine behavior, 1 hr.
The mark [2] stands for this setting: rats, i.p., d-amphetamine sulfate 5 mg./kg. i.p. given 5 hrs. after test compound, read-out: ED50 to antagonize or block amphetamine behavior, 5 hrs.
The mark [3] stands for this setting: rats, i.p., d-amphetamine sulfate 5 mg./kg. i.p. given 24 hrs. after test compound, read-out: ED50 to antagonize or block amphetamine behavior, 24 hrs.

Where a name gives a salt, the structure may show the parent alone. Read-outs that look alike come from different tables or passages of the source.

`CN(C)CCCN1c2ccccc2Sc2ccc(Cl)cc21` [chlorpromazine, reference compound]: the ED50 (usually the midpoint of the dose-response relation) (1 h, read-out: ED50 to antagonize or block amphetamine behavior, 1 hr.) was found to be 7 mg/kg.
As for `Fc1ccc(C=CCCN2CCc3c(c4cc(F)ccc4n3-c3ccc(F)cc3)C2)cc1` [F, F, p-FC6H4CHCH(CH2)2, 8-Fluoro-5-(p-fluorophenyl)-2-[4-(p-fluorophenyl)-3-butenyl]-1,2,3,4-tetrahydro-γ-carboline], the ED50 is 3.2 to 10 mg/kg under setting [1], 1 to 3.2 mg/kg under setting [2] and greater than 3.2 mg/kg under setting [3].
Taken in the same sequence, the figures for `CC(C)(C)CCN1CCc2c(c3cc(F)ccc3n2-c2ccc(F)cc2)C1` [F, F, (CH3)3C(CH2)2, 8-fluoro-5-(p-fluorophenyl)-2-(3,3-dimethyl-n-buty)-1,2,3,4-tetrahydro-γ-carboline] were 1 to 3.2 mg/kg, greater than 10 mg/kg and greater than 10 mg/kg.
Taken in the same sequence, the figures for `CCCN1CCc2c(c3cc(F)ccc3n2-c2ccc(F)cc2)C1` [F, F, n-C3H7, 8-fluoro-5-(p-fluorophenyl)-2-n-propyl-1,2,3,4-tetrahydro-γ-carboline] were 3.2 to 10 mg/kg, greater than 10 mg/kg and greater than 3.2 mg/kg.
In the case of `CN1CCc2c(c3ccccc3n2-c2ccccc2)C1` [H, H, CH3, 5-phenyl-2-methyl-1,2,3,4-tetrahydro-γ-carboline, reference compound], the ED50 under setting [1] lay in the range of 10 to 32 mg/kg.
Same read-out and setting: to `c1ccc(CN2CCc3c(c4ccccc4n3-c3ccccc3)C2)cc1` [H, H, CH2C6H5, 5-phenyl-2-benzyl-1,2,3,4-tetrahydro-γ-carboline, reference compound] belongs greater than 32 mg/kg; to `CN1CCc2c(c3cc(Cl)ccc3n2-c2ccccc2)C1` [Cl, H, CH3, 8-Chloro-5-phenyl-2-methyl-1,2,3,4-tetrahydro-γ-carboline hydrochloride], 3.2 to 10 mg/kg; to `CCN1CCc2c(c3cc(Cl)ccc3n2-c2ccccc2)C1` [Cl, H, C2H5], 3.2 to 10 mg/kg.
On the same count and under the same terms, next, `CN1CCc2c(c3cc(Br)ccc3n2-c2ccccc2)C1` [Br, H, CH3]: 3.2 to 10 mg/kg.
Regarding `CCN1CCc2c(c3cc(F)ccc3n2-c2ccc(F)cc2)C1` [F, F, C2H5, 8-Fluoro-5-(p-fluorophenyl)-2-ethyl-1,2,3,4-tetrahydro-γ-carboline hydrochloride], the ED50 under setting [1] is 3.2 to 10 mg/kg, the ED50 under setting [2] is greater than 10 mg/kg and the ED50 under setting [3] was greater than 10 mg/kg.
As for `CN1CCc2c(c3cc(F)ccc3n2-c2ccc(F)cc2)C1` [F, F, CH3, 8-Fluoro-5-(p-fluorophenyl)-2-methyl-1,2,3,4-tetrahydro-γ-carboline hydrochloride], under setting [1], the ED50 was 1 to 3.2 mg/kg.
Still for that read-out and setting: next, `CN1CCc2c(c3cc(F)ccc3n2-c2ccccc2)C1` [F, H, CH3]: 3.2 to 10 mg/kg.
